Experimental data: patent US9433601B2, “Chewing gum compositions comprising cannabinoids” (Stichting Sanammad, priority 2008, dated 2016)

Test: Degradation of THC during preparation of the chewing gum (extraction and HPLC)
Format: physicochemical
Settings: gum base heated till 90° C.; main breakdown product dihydrocannabinol
Protocol: Samples were prepared by putting one gum in a 10.0 ml glass laboratory tube. 5.00 ml ethanol was added and the tube was shaken 3 times with a 5 minute interval. Then 5.00 ml mobile phase (acetonitrile: H2O+0.1% formic acid) was added. The tube was shaken and the gum was mashed with a Pasteur pipette. Then the solution was shaken again and the sample was filtered through a 0.2 micrometer filter. This is the impurity solution. An assay solution was prepared by diluting the impurity solution 100 times with mobile phase. The calculated amount of THC is based upon comparison with a reference solution with an exactly known amount of THC. Purities are calculated as peak area/sum of area's*100%. Impurities present in the placebo are not considered and known impurities are corrected with known response factors.

Which “degradation of THC during the preparation of the chewing gum” value does the source give for `CCCCCc1cc(O)c2c(c1)OC(C)(C)[C@@H]1CCC(C)=C[C@@H]21` [THC, (−)-(6aR,10aR)-6,6,9-trimethyl-3-pentyl-6a,7,8,10a-tetrahydro-6H-benzo[c]chromen-1-ol] here?
The value was “only a slight degradation”.
